# Experimental data: patent US8163909B2, “Substituted hydroxyethyl amine compounds as beta-secretase modulators and methods of use” (Amgen Inc., priority 2007, dated 2012)
# Read-outs that look alike come from different tables or passages of the source.
# Legend:
# Abeta peptide = experiment: In vivo inhibition of beta-secretase (reduction of Abeta peptide in brain and cerebrospinal fluid); parameters: species or system rat; conditions: Rattus norvegicus, po, 4 h, orally administered at 30 mg/kg dose, measured after 4 hours;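 note: abeta peptide quantified by sandwich ELISA with electrochemiluminescence readout in rat brain supernatant or CSF, relative to vehicle-dosed control animals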
# [1] = biological target: Beta Secretase enzyme (BACE) (Homo sapiens, UniProt P56817); experiment: In vitro enzymatic BACE FRET (fluorescence resonance energy transfer) assay; type: biochemical; conditions: read-out: BACE1 FRET assay;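 note: fluorescence read after 1 h with 50 nM quenched peptide substrate spanning the BACE cleavage site, in pH 4.2 acetate buffer containing 10% DMSO and nonionic detergent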
# Chain of Beta Secretase enzyme (BACE) (P56817 46-501): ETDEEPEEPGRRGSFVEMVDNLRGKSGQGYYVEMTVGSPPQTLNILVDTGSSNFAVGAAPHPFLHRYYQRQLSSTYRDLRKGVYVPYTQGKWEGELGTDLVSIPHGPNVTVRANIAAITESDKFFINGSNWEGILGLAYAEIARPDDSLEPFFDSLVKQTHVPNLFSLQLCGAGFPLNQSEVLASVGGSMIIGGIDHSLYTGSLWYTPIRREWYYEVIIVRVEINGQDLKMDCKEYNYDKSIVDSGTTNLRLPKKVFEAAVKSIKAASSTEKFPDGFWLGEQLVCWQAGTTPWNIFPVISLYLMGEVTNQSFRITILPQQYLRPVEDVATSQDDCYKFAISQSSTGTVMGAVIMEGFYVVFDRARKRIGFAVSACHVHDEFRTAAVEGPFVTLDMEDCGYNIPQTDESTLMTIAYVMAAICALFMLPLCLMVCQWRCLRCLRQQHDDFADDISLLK
# CYP3A4 (CYP3A) = CYP3A4 (CYP3A) (Homo sapiens, UniProt P08684); experiment: in vitro; conditions: microsomes, pH 7.4;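 note: inhibition of CYP3A-mediated 1-hydroxymidazolam formation after 10 min incubation with NADPH, quantified by HPLC MS relative to metabolite produced without test compound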
# Chain of CYP3A4 (CYP3A) (P08684 2-503): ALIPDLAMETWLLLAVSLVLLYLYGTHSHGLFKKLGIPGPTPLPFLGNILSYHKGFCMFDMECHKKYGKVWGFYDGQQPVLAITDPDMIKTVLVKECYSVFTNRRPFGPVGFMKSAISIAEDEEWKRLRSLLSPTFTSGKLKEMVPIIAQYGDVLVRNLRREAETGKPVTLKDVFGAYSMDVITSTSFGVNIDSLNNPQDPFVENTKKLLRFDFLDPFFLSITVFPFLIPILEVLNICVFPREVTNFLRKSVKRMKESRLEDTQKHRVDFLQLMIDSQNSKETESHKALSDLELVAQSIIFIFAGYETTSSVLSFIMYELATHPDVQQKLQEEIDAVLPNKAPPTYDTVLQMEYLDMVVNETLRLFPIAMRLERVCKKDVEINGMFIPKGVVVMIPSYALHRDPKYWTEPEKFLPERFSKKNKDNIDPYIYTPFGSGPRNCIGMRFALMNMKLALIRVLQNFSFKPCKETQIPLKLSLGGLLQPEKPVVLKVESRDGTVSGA
# CYP2D6 = CYP2D6 (Homo sapiens, UniProt P10635); experiment: CYP2D6 inhibition assay (bufuralol, pooled human liver microsomes)
# Chain of CYP2D6 (P10635 whole entry): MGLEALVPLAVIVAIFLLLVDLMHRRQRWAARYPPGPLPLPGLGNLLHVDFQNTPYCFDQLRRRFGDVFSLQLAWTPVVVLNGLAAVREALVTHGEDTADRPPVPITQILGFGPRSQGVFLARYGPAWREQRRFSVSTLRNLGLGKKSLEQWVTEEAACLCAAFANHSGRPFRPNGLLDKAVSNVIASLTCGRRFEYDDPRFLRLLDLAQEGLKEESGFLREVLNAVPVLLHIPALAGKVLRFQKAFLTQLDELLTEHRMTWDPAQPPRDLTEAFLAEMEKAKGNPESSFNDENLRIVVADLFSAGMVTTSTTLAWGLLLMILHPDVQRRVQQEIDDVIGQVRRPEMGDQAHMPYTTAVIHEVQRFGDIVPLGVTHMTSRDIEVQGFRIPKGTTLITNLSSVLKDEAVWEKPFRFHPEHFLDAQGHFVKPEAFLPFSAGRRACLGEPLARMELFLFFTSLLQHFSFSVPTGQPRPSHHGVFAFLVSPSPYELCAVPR
# [2] = Microsomal stability assay, rat liver microsomes;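 note: rat liver microsomes (0.25 mg/mL) with about 1 µM compound plus 1 mM NADPH, pH 7.4, 37 °C for 30 min, parent left measured by LC-MS/MS against 0 min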
# [3] = tested on: Aβ40 in conditioned medium of cells stably expressing Amyloid Precursor Protein (APP); experiment: In vitro BACE cell-based assay (Aβ40 in conditioned medium, sandwich ELISA); conditions: Homo sapiens, read-out: HEK cell assay;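 note: compounds added as a dilution series, secreted peptide quantified by europium time-resolved fluorescence readout, potency fitted from percent of control versus compound concentration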
# [4] = Microsomal stability assay, human liver microsomes;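 note: pooled human liver microsomes at 0.25 mg/mL with 1 µM compound and NADPH at 37 °C, pH 7.4, for 30 min, unchanged parent quantified by LC-MS/MS against the 0 min sample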
# [5] = rat brain, read-out: percent reduction of abeta peptide in the brain of the rat
# [6] = rat cerebrospinal fluid, read-out: percent reduction of abeta peptide in the cerebrospinal fluid of the rat
# [7] = BACE enzyme assay, IC50's in uM
# [8] = 2D6 IC50 (uM), CYP enzyme inhibition
# [9] = HEK293, HEK cell-based assay, IC50's in uM
# [10] = 2D6 IC50, CYP enzyme inhibition
# [11] = HEK293, cell-based assay, HEK cells, IC50's in uM
SMILES,inhibition in vivo at 30 mg/kg (Abeta peptide; [5]) [%],inhibition in vivo at 30 mg/kg (Abeta peptide; [6]) [%],"IC50 [1, 7] [µM]",IC50 (CYP3A4 (CYP3A)) [nM],IC50 (CYP2D6; [8]) [µM],RLM ([2]; rat liver microsomal data) [µL/min/mg],"IC50 [3, 9] [µM]",HLM ([4]; human liver microsomal data) [µL/min/mg],IC50 (CYP2D6; [10]) [µM],"IC50 [3, 11] [µM]",IC50 ([1]; BACE enzyme assay) [µM],"IC50 ([3]; HEK293, HEK cells) [µM]",IC50 ([1]; BACE enzyme assay IC50) [µM],"IC50 (CYP2D6; 2D6 IC50 (uM), CYP2D6 inhibition) [µM]",RLM ([2]; rat liver microsomes) [µL/min/mg],"IC50 ([3]; HEK293, HEK cell-based assay IC50) [µM]",HLM ([4]; human liver microsomes) [µL/min/mg]
"COCC(=O)N[C@@H](Cc1cc(F)cc(-c2nccs2)c1)[C@H](O)CN[C@H]1CC2(CCC2)Oc2cnc(CC(C)(C)C)cc21 [Example 782, N-((1S,2R)-3-(((4′S)-6′-(2,2-dimethylpropyl)-3′,4′-dihydrospiro[cyclobutane-1,2′-pyrano[2,3-c]pyridin]-4′-yl)amino)-1-(3-fluoro-5-(1,3-thiazol-2-yl)benzyl)-2-hydroxypropyl)-2-methoxyacetamide]",5 to 80,10 to 80,0.015,300,0.4,130,0.036,94,–,–,–,–,–,–,–,–,–
CNc1nc(CC(C)(C)C)cc2c1OC1(CCC1)C[C@@H]2NC[C@@H](O)[C@H](Cc1cc(F)cc(-c2nccs2)c1)NC(=O)COC [Example 847],5 to 80,≥ 50,0.044,400,–,201,–,102,0.8,0.01,–,–,–,–,–,–,–
C#Cc1cc(C[C@H](NC(=O)COCC)[C@H](O)CN[C@H]2CC3(CCC3)Oc3ncc(CC(C)(C)C)cc32)ccc1F [Example 837],–,10 to 80,0.007,100,1.6,72,0.023,29,–,–,–,–,–,–,–,–,–
"COC(OC)C(=O)N[C@@H](Cc1cccc(-c2ncco2)c1)[C@H](O)CN[C@H]1CC2(CCC2)Oc2ncc(CC(C)(C)C)cc21 [Example 826, N-((1S,2R)-3-(((4′S)-6′-(2,2-dimethylpropyl)-3′,4′-dihydrospiro[cyclobutane-1,2′-pyrano[2,3-b]pyridin]-4′-yl)amino)-2-hydroxy-1-(3-(1,3-oxazol-2-yl)benzyl)propyl)-2,2-dimethoxyacetamide]",5 to 80,10 to 80,0.012,200,0.9,55,0.013,66,–,–,–,–,–,–,–,–,–
CC(=O)N[C@@H](Cc1cccc(F)c1)[C@H](O)CN[C@H]1CC2(CCC2)Oc2c1cc(CC(C)(C)C)nc2-n1ccnc1 [Example 506],–,10 to 80,–,100,2.2,61,–,14,–,–,0.021,0.02,–,–,–,–,–
"CC(=O)N[C@@H](Cc1cc(F)cc(-c2cncs2)c1)[C@H](O)CN[C@H]1CC2(CCC2)Oc2ncc(CC(C)(C)C)cc21 [Example 671, N-((1S,2R)-3-(((4′S)-6′-(2,2-dimethylpropyl)-3′,4′-dihydrospiro[cyclobutane-1,2′-pyrano[2,3-b]pyridin]-4′-yl)amino)-1-(3-fluoro-5-(1,3-thiazol-5-yl)benzyl)-2-hydroxypropyl)acetamide]",–,10 to 80,–,100,–,–,–,–,–,–,–,–,0.005,0.4,48,0.012,99
CC(C)(C)Cc1cnc2c(c1)[C@@H](NC[C@@H](O)[C@H](Cc1cc(F)cc(-c3nccs3)c1)NC(=O)C1CCC1)CC1(CCC1)O2 [Example 875],5 to 80,–,0.006,200,–,81,–,65,0.3,0.02,–,–,–,–,–,–,–
COCC(=O)N[C@@H](Cc1ccccc1)[C@H](O)CN[C@H]1CC2(CCC2)Oc2c1cc(CC(C)(C)C)nc2-c1ccncc1 [Example 541],–,10 to 80,–,100,2.1,192,–,31,–,–,0.02,0.055,–,–,–,–,–
